Assay results from patent US6046228A, “Anti-viral pharmaceutical compositions containing saturated 1,2-dithiaheterocyclic compounds and uses thereof” (priority 1999, dated 2000).
Like-named read-outs stand apart in the source and are kept apart here.

Experiments:
HIV-1ADA = test: antiviral assay in monocyte-macrophage cultures (p24); format: cell-based; settings: Human immunodeficiency virus 1
Experimental: (§1) Initial anti-HIV screening was performed with CEM-SS cells and HIV-1RFusing the XTT cytoprotection assay as previously described (Weislow et al., J. National Cancer Inst. 81: 577-586, (1989)). HIV-1 isolates included common laboratory stains (RF, IIIB and MN), as well as a panel of HIV-1 clinical isolates (Cushman et al., J. Med. Chem. 37: 3040-3050, (1994)). The pyridone-resistant HIV-1A17 isolate (Nunberg et al., J. Virol., 65: 4887-4892 (1991)) was obtained from Emilio Emini at Merck Sharpe and Dohme Laboratories. Phytohemagglutinin-stimulated human peripheral blood lymphocytes (PBLs) and fresh monocyte-macrophage (Mono/MF) cultures were prepared and utilized in antiviral assays as previously described (Rice et al., Proc. Nat'l. Academy Science, USA 90: 9721-9724, (1993)); (Cushman et al., J. Med. Chem. 37: 3040-3050, (1994)). EC50 values for these cultures indicate the drug concentration that provided a 50% reduction in viral p24 production. […] The compounds can be synthesized according to the teachings of Singh et al., Sulfur Letters 8: 107-114, (1988). The 4,5-cis-dihydroxy(1,1-dioxy-1,2,-dithiohexane) compound (NSC 624151) has been abbreviated as 624151 for convenience. MT-2, MT-4, U1, HeLa-CD4-LTR-β-gal and 174xCEM cells were obtained from the AIDS Research and Reference Program (National Institute of Allergy and Infectious Disease, National Institutes of Health, Bethesda, Md. USA), as were the HIV-2MS and the AZT-resistant HIV-1G910-6 isolates. […]

HIV-1NL4-3 4XAZT = test: XTT cytopathicity assay, NL4-3 site-directed RT mutant; format: cell-based; settings: MT-2, NL4-3 4XAZT
Experimental: (§2) Initial anti-HIV screening was performed with CEM-SS cells and HIV-1RFusing the XTT cytoprotection assay as previously described (Weislow et al., J. National Cancer Inst. 81: 577-586, (1989)). HIV-1 isolates included common laboratory stains (RF, IIIB and MN), as well as a panel of HIV-1 clinical isolates (Cushman et al., J. Med. Chem. 37: 3040-3050, (1994)). The pyridone-resistant HIV-1A17 isolate (Nunberg et al., J. Virol., 65: 4887-4892 (1991)) was obtained from Emilio Emini at Merck Sharpe and Dohme Laboratories. Phytohemagglutinin-stimulated human peripheral blood lymphocytes (PBLs) and fresh monocyte-macrophage (Mono/MF) cultures were prepared and utilized in antiviral assays as previously described (Rice et al., Proc. Nat'l. Academy Science, USA 90: 9721-9724, (1993)); (Cushman et al., J. Med. Chem. 37: 3040-3050, (1994)). EC50 values for these cultures indicate the drug concentration that provided a 50% reduction in viral p24 production. […] The compounds can be synthesized according to the teachings of Singh et al., Sulfur Letters 8: 107-114, (1988). The 4,5-cis-dihydroxy(1,1-dioxy-1,2,-dithiohexane) compound (NSC 624151) has been abbreviated as 624151 for convenience. MT-2, MT-4, U1, HeLa-CD4-LTR-β-gal and 174xCEM cells were obtained from the AIDS Research and Reference Program (National Institute of Allergy and Infectious Disease, National Institutes of Health, Bethesda, Md. USA), as were the HIV-2MS and the AZT-resistant HIV-1G910-6 isolates.
(§3) ^a Anti-HIV studies utilizing lymphocytederived cell lines were
(§4) performed using the XTT cytopathicity assay, while antiviral assays

HIV-1NL4-3 A986 = test: as above; format: cell-based; settings: MT-2, NL4-3 A986
Experimental: as §2, §3, §4

HIV-1NL4-3 K103N = test: as above; format: cell-based; settings: MT-2, NL4-3 K103N
Experimental: as §2, §3, §4

HIV-1NL4-3 L74V = test: as above; format: cell-based; settings: MT-2, NL4-3 L74V
Experimental: as §2, §3, §4

HIV-1NL4-3 V1061 = test: as above; format: cell-based; settings: MT-2, NL4-3 V1061
Experimental: as §2, §3, §4

HIV-1NL4-3 V1081 = test: as above; format: cell-based; settings: MT-2, NL4-3 V1081
Experimental: as §2, §3, §4

HIV-1NL4-3 V179D = test: as above; format: cell-based; settings: MT-2, NL4-3 V179D
Experimental: as §2, §3, §4

HIV-1NL4-3 Y181C = test: as above; format: cell-based; settings: MT-2, NL4-3 Y181C
Experimental: as §2, §3, §4

HIV-1NL4-3 Y188C = test: as above; format: cell-based; settings: MT-2, NL4-3 Y188C
Experimental: as §2, §3, §4

HIV-1IIIB = test: combination antiviral XTT assay, CEM-SS cells, method of Prichard and Shipman; format: cell-based; settings: for synergy volume: 95% confidence level
Experimental: Analysis of drug combinations was performed utilizing the XTT assay described above, with statistical evaluations performed according to the method of Prichard and Shipman (Antiviral Res. 14: 181-206, (1990)). Combination antiviral XTT assays were performed with CEM-SS cells utilizing HIV-1IIIB as previously described (Buckheit et al., Antimicrobial Agents and Chemotherapy 39: 2718-2727, (1995)). The standard anti-HIV assay was altered for combination analysis by increasing the multiplicity of infection 3-fold, allowing greater statistical consistency in these assays.
The synergy volumes for the combinatorial anti-HIV activities calculated at the 95% confidence level were 37, 80, 44, 55 and 16 μM^2, respectively, for each combination. Synergy volumes that range from […] represent additivity and volumes>50% represent synergistic responses. […] Thus, it is anticipated that the present dithiane dioxide compounds can be used in pharmaceutical compositions further including other antiviral agents.

HIV-1 integrase = target: T1, HIV-1 integrase (Human immunodeficiency virus type 1 group M subtype B, UniProt P04585); test: HIV-1 integrase activity; format: biochemical
T1 construct: the purified HIV-1 protease and integrase enzymes

HIV-1, HIV-2 and SIV = test: range of antiviral action studies; format: cell-based; settings: in words
Experimental: as §1, with “convenience.” for “convenience. MT-2, MT-4, U1, HeLa-CD4-LTR-β-gal and 174xCEM cells were obtained from the AIDS Research and Reference Program (National Institute of Allergy and Infectious Disease, National Institutes of Health, Bethesda, Md. USA), as were the HIV-2MS and the AZT-resistant HIV-1G910-6 isolates.”

Structure (SMILES): O=S1(=O)C[C@H](O)[C@H](O)CS1 (relative stereo) [NSC 624151, cis-1,1-dioxo[1,2]dithiane-4,5-diol]
- EC50 (HIV-1ADA; HIV-1ADA, monocyte/macrophage cultures, 50% reduction in p24, read-out: Mo/M.PHI. EC50): 8 µM
- EC50 (HIV-1ADA; Mo/M.PHI., ADA, cell-free p24, Table 2, read-out: EC50): 2.1 µM
- EC50 (HIV-1NL4-3 4XAZT): 10.7 µM
- EC50 (HIV-1NL4-3 A986): 26.5 µM
- EC50 (HIV-1NL4-3 K103N): 17.3 µM
- EC50 (HIV-1NL4-3 L74V): 19.8 µM
- EC50 (HIV-1NL4-3 V1061): 20.8 µM
- EC50 (HIV-1NL4-3 V1081): 20 µM
- EC50 (HIV-1NL4-3 V179D): 20.2 µM
- EC50 (HIV-1NL4-3 Y181C): 20.9 µM
- EC50 (HIV-1NL4-3 Y188C): 19.4 µM
- combination response with other antiviral agents (HIV-1IIIB; AZT, ddC, 3TC, Costatolide or KNI-272, in words): additive to slightly synergistic response in combination with other antiviral agents, but was not antagonistic with any agents tested
- synergy volume (HIV-1IIIB; in combination with 3TC): 44 μM^2
- synergy volume (HIV-1IIIB; in combination with AZT): 37 μM^2
- synergy volume (HIV-1IIIB; in combination with Costatolide): 55 μM^2
- synergy volume (HIV-1IIIB; in combination with KNI-272 protease inhibitor): 16 μM^2
- synergy volume (HIV-1IIIB; in combination with ddC): 80 μM^2
- inhibition of HIV-1 integrase (HIV-1 integrase; in words): not inhibited
- IC50 (HIV-1 integrase; read-out: Integrase ID50): > 100 µM
- inhibition of replication of laboratory and drug-resistant HIV-1 strains (HIV-1, HIV-2 and SIV; RF, IIIB, SK1, MN, AZT-, nevirapine-, pyridinone-, NNRTI-resistant strains): effectively inhibited replication
- activity against RT mutants, clinical strains, clades, HIV-2 and SIV (HIV-1, HIV-2 and SIV): active against
